This note sets out measurements from ChEMBL document CHEMBL3877313, “3,4-Dihydropyrimidinone-coumarin analogues as a new class of selective agent against S. aureus: Synthesis, biological evaluation and molecular modelling study” (2017).

Assay [1] concerns the target 72 kDa type IV collagenase (Homo sapiens) (UniProt P08253). The experiment in a line: Inhibition of MMP2 in inflamed tissue isolated from chronic periodontitis patient at 500 ug/l after 15 to 30 mins by gelatin zymographic method relative to control.
Assay [2] addresses Matrix metalloproteinase-9 (Homo sapiens) (UniProt P14780). The experiment in a line: Inhibition of MMP9 in inflamed tissue isolated from chronic periodontitis patient at 500 ug/l after 15 to 30 mins by gelatin zymographic method relative to control.
The subject of the next assay is Escherichia coli. The experiment in a line: Antibacterial activity against Escherichia coli ATCC 25922 after 24 hrs by broth microdilution method. In kind it is functional. The conditions noted are these: ATCC 25922, 24 h.
A further assay deals with Staphylococcus aureus. The experiment in a line: Antibacterial activity against Staphylococcus aureus ATCC 12598 after 24 hrs by broth microdilution method. The assay is classed as functional. To be noted: ATCC 12598, 24 h.
For the next assay, the system named is Bacillus subtilis. The experiment in a line: Antibacterial activity against Bacillus subtilis ATCC 23857 after 24 hrs by broth microdilution method. The assay is classed as functional. The conditions noted are these: ATCC 23857, 24 h.
The next assay concerns Pseudomonas aeruginosa. As to the kind of experiment: Antibacterial activity against Pseudomonas aeruginosa ATCC 25619 after 24 hrs by broth microdilution method. In kind it is functional. To be noted: ATCC 25619, 24 h.

In brackets after ≈: the same amount, converted by molar mass.

Sequence of Matrix metalloproteinase-9 (Homo sapiens) (P14780 whole entry): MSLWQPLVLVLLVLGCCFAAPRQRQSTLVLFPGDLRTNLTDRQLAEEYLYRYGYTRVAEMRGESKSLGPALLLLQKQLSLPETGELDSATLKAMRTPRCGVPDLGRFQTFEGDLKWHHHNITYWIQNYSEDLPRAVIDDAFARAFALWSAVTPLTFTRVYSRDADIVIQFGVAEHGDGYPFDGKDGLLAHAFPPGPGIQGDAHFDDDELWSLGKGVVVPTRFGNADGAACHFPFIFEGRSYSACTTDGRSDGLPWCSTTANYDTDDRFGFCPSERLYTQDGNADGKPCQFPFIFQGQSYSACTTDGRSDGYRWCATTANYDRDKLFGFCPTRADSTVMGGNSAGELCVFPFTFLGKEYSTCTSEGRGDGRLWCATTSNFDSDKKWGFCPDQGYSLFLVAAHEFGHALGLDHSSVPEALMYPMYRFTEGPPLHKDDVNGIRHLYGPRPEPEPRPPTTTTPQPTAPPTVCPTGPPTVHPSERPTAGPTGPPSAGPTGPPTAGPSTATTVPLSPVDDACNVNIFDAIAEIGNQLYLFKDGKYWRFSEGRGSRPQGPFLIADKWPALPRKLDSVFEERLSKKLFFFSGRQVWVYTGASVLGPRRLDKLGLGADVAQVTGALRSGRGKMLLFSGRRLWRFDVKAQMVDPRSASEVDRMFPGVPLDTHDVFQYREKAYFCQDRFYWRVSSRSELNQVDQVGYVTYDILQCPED
Sequence of 72 kDa type IV collagenase (Homo sapiens) (P08253 110-660 limits assumed): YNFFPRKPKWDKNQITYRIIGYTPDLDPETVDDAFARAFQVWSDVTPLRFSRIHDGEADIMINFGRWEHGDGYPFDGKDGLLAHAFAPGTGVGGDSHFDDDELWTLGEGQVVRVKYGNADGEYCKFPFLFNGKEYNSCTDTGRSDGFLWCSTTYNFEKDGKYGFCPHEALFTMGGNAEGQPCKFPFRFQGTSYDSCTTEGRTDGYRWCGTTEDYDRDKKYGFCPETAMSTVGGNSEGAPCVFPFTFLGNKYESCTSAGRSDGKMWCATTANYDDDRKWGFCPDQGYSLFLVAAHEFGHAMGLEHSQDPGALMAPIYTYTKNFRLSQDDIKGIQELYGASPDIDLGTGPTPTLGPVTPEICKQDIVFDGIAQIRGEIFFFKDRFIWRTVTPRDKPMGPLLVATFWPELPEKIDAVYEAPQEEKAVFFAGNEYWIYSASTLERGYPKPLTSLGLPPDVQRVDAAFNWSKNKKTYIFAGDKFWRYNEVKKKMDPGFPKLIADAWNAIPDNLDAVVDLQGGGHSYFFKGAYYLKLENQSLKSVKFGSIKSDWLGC

In the case of `CN(C)[C@@H]1C(O)=C(C(N)=O)C(=O)[C@@]2(O)C(O)=C3C(=O)c4c(O)cccc4[C@@](C)(O)[C@H]3C[C@@H]12`, the inhibition in assay [1] and in assay [2] was 100% each time.

As to `CCOC(=O)C1=C(C)NC(=S)NC1c1cc(=O)oc2cc(C)ccc12` (configuration not stated), the MIC against Escherichia coli is 25 µg/mL (≈ 69.8 µM); against Staphylococcus aureus, 6.25 µg/mL (≈ 17.4 µM); in the assay with Bacillus subtilis, 50 µg/mL (≈ 140 µM); against Pseudomonas aeruginosa it was 100 µg/mL (≈ 279 µM). Also, the inhibition stood at 80% in assay [1] and 30% in assay [2].

In the case of `CCOC(=O)C1=C(C)NC(=O)NC1c1cc(=O)oc2c1ccc1ccccc12` (configuration not stated), the MIC was 25 µg/mL (≈ 66.1 µM) against Escherichia coli, 0.4 µg/mL (≈ 1.06 µM) against Staphylococcus aureus, 100 µg/mL (≈ 264 µM) against Bacillus subtilis and 25 µg/mL (≈ 66.1 µM) in the assay with Pseudomonas aeruginosa. For the same compound, the inhibition in assay [1] came to 96%; in assay [2] it was 90%.

In the case of `O=C(O)c1cn(C2CC2)c2cc(N3CCNCC3)c(F)cc2c1=O` [CIPROFLOXACIN], the values for the MIC with Staphylococcus aureus, against Bacillus subtilis and in the assay on Pseudomonas aeruginosa were 2 µg/mL (≈ 6.04 µM), 2 µg/mL (≈ 6.04 µM) and below 4 µg/mL, respectively.

With `CCOC(=O)C1=C(C)NC(=S)NC1c1cc(=O)oc2ccc(Cl)cc12` (configuration not stated), the MIC against Escherichia coli amounted to 0.4 µg/mL (≈ 1.06 µM); against Staphylococcus aureus it was 0.8 µg/mL (≈ 2.11 µM); with Bacillus subtilis, 50 µg/mL (≈ 132 µM); in the assay with Pseudomonas aeruginosa, 100 µg/mL (≈ 264 µM). The compound further came in with an inhibition in assay [1] of 85%.

As for `CCOC(=O)C1=C(C)NC(=O)NC1c1cc(=O)oc2ccc(C)cc12` (configuration not stated), the MIC in the assay on Escherichia coli is 50 µg/mL (≈ 146 µM); in the assay on Staphylococcus aureus, 0.4 µg/mL (≈ 1.17 µM); with Bacillus subtilis it was 12.5 µg/mL (≈ 36.5 µM); against Pseudomonas aeruginosa, 100 µg/mL (≈ 292 µM). For the same compound, the results for the inhibition in assay [1] and in assay [2] were 90% and 80%, respectively.

With `CCOC(=O)C1=C(C)NC(=S)NC1c1cc(=O)oc2ccc(C)cc12` (configuration not stated), the minimum inhibitory concentration (MIC) in the assay on Escherichia coli turned out to be 1.6 µg/mL (≈ 4.46 µM); against Staphylococcus aureus it was 0.4 µg/mL (≈ 1.12 µM); against Bacillus subtilis, 100 µg/mL (≈ 279 µM); against Pseudomonas aeruginosa it was 100 µg/mL (≈ 279 µM). This compound registered an inhibition in assay [1] of 82%.

For `CCOC(=O)C1=C(C)NC(=O)NC1c1cc(=O)oc2cc(C)ccc12` (configuration not stated), the MIC against Escherichia coli was found to be 12.5 µg/mL (≈ 36.5 µM); against Staphylococcus aureus, 0.2 µg/mL (≈ 0.584 µM); against Bacillus subtilis, 50 µg/mL (≈ 146 µM); in the assay with Pseudomonas aeruginosa, 100 µg/mL (≈ 292 µM). In addition, the inhibition in assay [1] was 95%; in assay [2], 70%.

As for `CCOC(=O)C1=C(C)NC(=S)NC1c1cc(=O)oc2ccc(OC)cc12` (configuration not stated), the minimum inhibitory concentration (MIC) came to 25 µg/mL (≈ 66.8 µM) against Escherichia coli, 0.8 µg/mL (≈ 2.14 µM) against Staphylococcus aureus, 50 µg/mL (≈ 134 µM) in the assay on Bacillus subtilis and 100 µg/mL (≈ 267 µM) against Pseudomonas aeruginosa. For the same compound, the figures for the inhibition in assay [1] and in assay [2] were 87% and 10%, respectively.

For the compound `CCOC(=O)C1=C(C)NC(=S)NC1c1cc(=O)oc2c1ccc1ccccc12` (configuration not stated), the minimum inhibitory concentration (MIC) in the assay on Escherichia coli was 0.4 µg/mL (≈ 1.01 µM); in the assay with Staphylococcus aureus, 0.4 µg/mL (≈ 1.01 µM); with Bacillus subtilis, 100 µg/mL (≈ 254 µM); in the assay with Pseudomonas aeruginosa it was 100 µg/mL (≈ 254 µM). In addition, the inhibition in assay [1] turned out to be 90%; in assay [2] it was 95%.

Consider `CCOC(=O)C1=C(C)NC(=O)NC1c1cc(=O)oc2ccc(Cl)cc12` (configuration not stated), for which the MIC in the assay on Escherichia coli turned out to be 25 µg/mL (≈ 68.9 µM); in the assay with Staphylococcus aureus, 3.12 µg/mL (≈ 8.6 µM); with Bacillus subtilis, 100 µg/mL (≈ 276 µM); in the assay with Pseudomonas aeruginosa it was 50 µg/mL (≈ 138 µM). In assay [1], this compound displayed an inhibition of 85%.

Turning to `CCOC(=O)C1=C(C)NC(=O)NC1c1cc(=O)oc2ccc(OC)cc12` (configuration not stated), the minimum inhibitory concentration (MIC) stood at 50 µg/mL (≈ 140 µM) against Escherichia coli, 0.8 µg/mL (≈ 2.23 µM) against Staphylococcus aureus, 100 µg/mL (≈ 279 µM) in the assay with Bacillus subtilis and 25 µg/mL (≈ 69.8 µM) against Pseudomonas aeruginosa. Besides, the inhibition in assay [1] amounted to 95%; in assay [2] it was 85%.
